Reference: PubChem BioAssay AID248 (DTP/NCI, 2004)
Several values for one entry are separate records, joined by “and”; a condition that tells them apart may be missing. Identical values can stand only once. Inconclusive results and toxic doses are left out. Rule as the data show it: active = T/C of 150% or more; inactive = T/C below 125%.

Test system: L1210 leukemia ip in BDF1 mice, survival T/C
Experiment: NCI In Vivo Anticancer Drug Screen. Data for tumor model L1210 Leukemia (intraperitoneal) in B6D2F1 (BDF1) mice
Details: endpoint: mean survival time, higher = longer survival
Summary of the method: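 Mice bearing the transplanted tumor received compound or vehicle. Survival of the treated group was divided by that of the vehicle-treated control group to give the ratio.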

[1] = dose: 50.0 mg/kg/injection, schedule: Q01DX009 (ip), vehicle: saline
[2] = dose: 100.0 mg/kg/injection, schedule: Q01DX009 (ip), vehicle: saline
[3] = dose: 100.0 mg/kg/injection, schedule: Q04DX003 (ip), vehicle: saline
[4] = dose: 200.0 mg/kg/injection, schedule: Q01DX009 (ip), vehicle: saline
[5] = dose: 200.0 mg/kg/injection, schedule: Q04DX003 (ip), vehicle: saline
[6] = dose: 400.0 mg/kg/injection, schedule: Q04DX003 (ip), vehicle: saline
[7] = dose: 100.0 mg/kg/injection, schedule: Q01DX009 (ip), vehicle: Klucel (hydroxypropylcellulose) (HPC)
[8] = dose: 100.0 mg/kg/injection, schedule: Q04DX003 (ip), vehicle: Klucel (hydroxypropylcellulose) (HPC)
[9] = dose: 200.0 mg/kg/injection, schedule: Q01DX009 (ip), vehicle: Klucel (hydroxypropylcellulose) (HPC)
[10] = dose: 200.0 mg/kg/injection, schedule: Q04DX003 (ip), vehicle: Klucel (hydroxypropylcellulose) (HPC)
[11] = dose: 400.0 mg/kg/injection, schedule: Q01DX009 (ip), vehicle: Klucel (hydroxypropylcellulose) (HPC)
[12] = dose: 400.0 mg/kg/injection, schedule: Q04DX003 (ip), vehicle: Klucel (hydroxypropylcellulose) (HPC)
[13] = dose: 50.0 mg/kg/injection, schedule: Q01DX009 (ip), vehicle: Klucel (hydroxypropylcellulose) (HPC)
[14] = dose: 100.0 mg/kg/injection, schedule: Q01DX001 (ip), vehicle: saline
[15] = dose: 200.0 mg/kg/injection, schedule: Q01DX001 (ip), vehicle: saline
[16] = dose: 400.0 mg/kg/injection, schedule: Q01DX001 (ip), vehicle: saline
[17] = dose: 25.0 mg/kg/injection, schedule: Q01DX009 (ip), vehicle: Klucel (hydroxypropylcellulose) (HPC)

Measured: T/C

O=C(CCCN1CC=C(c2ccccc2)CC1)c1ccc(N2CCC(O)(c3ccc(Cl)cc3)CC2)cc1
inactive: dose: 100.0 mg/kg/injection, schedule: Q01DX001 (ip), vehicle: Klucel (hydroxypropylcellulose) (HPC) 89 % of control | dose: 200.0 mg/kg/injection, schedule: Q01DX001 (ip), vehicle: Klucel (hydroxypropylcellulose) (HPC) 95 % of control | dose: 400.0 mg/kg/injection, schedule: Q01DX001 (ip), vehicle: Klucel (hydroxypropylcellulose) (HPC) 92 % of control

Nc1ccc2ncccc2c1
inactive: dose: 25.0 mg/kg/injection, schedule: Q01DX009 (ip), vehicle: saline 97 % of control | [1] 93 % of control | [2] 105 % of control and 90 % of control | dose: 100.0 mg/kg/injection, schedule: Q04DX002 (ip), vehicle: alcohol 96 % of control | [3] 94 % of control | [4] 90 % of control | dose: 200.0 mg/kg/injection, schedule: Q04DX002 (ip), vehicle: alcohol 101 % of control | [5] 96 % of control | dose: 400.0 mg/kg/injection, schedule: Q04DX002 (ip), vehicle: alcohol 109 % of control | [6] 107 % of control

O=C1[O][Hg][c]2c1cccc2[N+](=O)[O-]
inactive: dose: 2.5 mg/kg/injection, schedule: Q01DX009 (ip), vehicle: Klucel (hydroxypropylcellulose) (HPC) 92 % of control | dose: 2.5 mg/kg/injection, schedule: Q04DX003 (ip), vehicle: Klucel (hydroxypropylcellulose) (HPC) 89 % of control | dose: 5.0 mg/kg/injection, schedule: Q01DX009 (ip), vehicle: Klucel (hydroxypropylcellulose) (HPC) 90 % of control | dose: 5.0 mg/kg/injection, schedule: Q04DX003 (ip), vehicle: Klucel (hydroxypropylcellulose) (HPC) 88 % of control | dose: 10.0 mg/kg/injection, schedule: Q01DX009 (ip), vehicle: Klucel (hydroxypropylcellulose) (HPC) 92 % of control | dose: 10.0 mg/kg/injection, schedule: Q04DX003 (ip), vehicle: Klucel (hydroxypropylcellulose) (HPC) 93 % of control and 96 % of control | dose: 20.0 mg/kg/injection, schedule: Q04DX003 (ip), vehicle: Klucel (hydroxypropylcellulose) (HPC) 98 % of control

CC#CCOCC1CN(c2ccccc2)C(=O)O1 (stereo unspecified)
inactive: dose: 100.0 mg/kg/injection, schedule: Q01DX009 (ip), vehicle: saline with Tween-80 117 % of control | dose: 100.0 mg/kg/injection, schedule: Q04DX003 (ip), vehicle: saline with Tween-80 95 % of control | dose: 200.0 mg/kg/injection, schedule: Q01DX009 (ip), vehicle: saline with Tween-80 103 % of control | dose: 200.0 mg/kg/injection, schedule: Q04DX003 (ip), vehicle: saline with Tween-80 103 % of control | dose: 400.0 mg/kg/injection, schedule: Q01DX009 (ip), vehicle: saline with Tween-80 100 % of control | dose: 400.0 mg/kg/injection, schedule: Q04DX003 (ip), vehicle: saline with Tween-80 101 % of control

NC(=O)NOCC1NC(=O)C(CONC(N)=O)NC1=O (stereo unspecified)
inactive: [7] 93 % of control | [8] 104 % of control | [9] 102 % of control | [10] 89 % of control | [11] 96 % of control | [12] 95 % of control

Nc1ccc([N+](=O)[O-])cc1N=C/C=C/c1ccccc1
inactive: [13] 101 % of control | [7] 96 % of control | [9] 92 % of control

CCCCOP(=O)(NC1CCCCC1)OCCCC
inactive: dose: 50.0 mg/kg/injection, schedule: Q04DX002 (ip), vehicle: saline with Tween-80 107 % of control | dose: 100.0 mg/kg/injection, schedule: Q04DX002 (ip), vehicle: saline with Tween-80 96 % of control | dose: 200.0 mg/kg/injection, schedule: Q04DX002 (ip), vehicle: saline with Tween-80 104 % of control

O=C(Nc1cc([N+](=O)[O-])ccc1S(=O)(=O)c1ccc([N+](=O)[O-])cc1NC(=O)c1ccccc1)c1ccccc1
inactive: dose: 75.0 mg/kg/injection, schedule: Q04DX003 (ip), vehicle: saline 92 % of control | [14] 93 % of control | dose: 150.0 mg/kg/injection, schedule: Q04DX003 (ip), vehicle: saline 124 % of control | [15] 94 % of control | dose: 300.0 mg/kg/injection, schedule: Q04DX003 (ip), vehicle: saline 92 % of control | [16] 94 % of control

CCOC(=O)N1C=Cn2c(cnc2C)C1O (stereo unspecified)
inactive: [1] 94 % of control | [2] 94 % of control | dose: 100.0 mg/kg/injection, schedule: Q01DX009 (ip), vehicle: water 102 % of control | [3] 102 % of control | [4] 100 % of control and 91 % of control | dose: 200.0 mg/kg/injection, schedule: Q01DX009 (ip), vehicle: water 90 % of control | [5] 109 % of control | dose: 400.0 mg/kg/injection, schedule: Q01DX009 (ip), vehicle: water 93 % of control | [6] 107 % of control

O=C(O)c1ccc(N=Nc2nc3ccccc3[nH]2)cc1
inactive: [13] 90 % of control | [7] 93 % of control | [9] 90 % of control

CN1C(=O)CN=C(c2ccccc2)c2cc(Cl)ccc21
inactive: dose: 12.5 mg/kg/injection, schedule: Q01DX009 (ip), vehicle: Klucel (hydroxypropylcellulose) (HPC) 97 % of control | [17] 95 % of control | dose: 25.0 mg/kg/injection, schedule: Q04DX003 (ip), vehicle: Klucel (hydroxypropylcellulose) (HPC) 93 % of control | [13] 100 % of control | dose: 50.0 mg/kg/injection, schedule: Q04DX003 (ip), vehicle: Klucel (hydroxypropylcellulose) (HPC) 93 % of control | [7] 100 % of control and 103 % of control | [8] 110 % of control and 93 % of control | [9] 100 % of control and 97 % of control | [10] 102 % of control and 110 % of control | [11] 100 % of control | [12] 88 % of control

CCCC(CCC)(CCC)CCN
inactive: dose: 5.0 mg/kg/injection, schedule: Q01DX Z (ip), vehicle: carboxymethylcellulose (CMC) 91 % of control | dose: 10.0 mg/kg/injection, schedule: Q01DX Z (ip), vehicle: carboxymethylcellulose (CMC) 112 % of control | dose: 15.0 mg/kg/injection, schedule: Q01DX Z (ip), vehicle: carboxymethylcellulose (CMC) 106 % of control | dose: 20.0 mg/kg/injection, schedule: Q01DX Z (ip), vehicle: carboxymethylcellulose (CMC) 101 % of control

Clc1ccc(Cl)c(-c2csc(-c3ccncc3)n2)c1
inactive: [17] 116 % of control | [13] 100 % of control | [7] 97 % of control and 103 % of control

O=c1oc2ccccc2c(O)c1C(c1ccc(C(c2c(O)c3ccccc3oc2=O)c2c(O)c3ccccc3oc2=O)cc1)c1c(O)c2ccccc2oc1=O
inactive: [8] 105 % of control | [10] 99 % of control | [12] 93 % of control

CC(C)(C)C#CCCl
inactive: [14] 96 % of control | [2] 116 % of control | [15] 105 % of control | [4] 97 % of control | [16] 94 % of control

CCOC(CCl)[N+](C)(C)C (stereo unspecified)
inactive: dose: 100.0 mg/kg/injection, schedule: Q04DX002 (ip), vehicle: saline 91 % of control

Cc1nc(N)[nH]c(=O)c1Br
inactive: [7] 97 % of control | [8] 93 % of control | [9] 100 % of control | [10] 98 % of control | [12] 98 % of control

COC(=O)C1=C(NC(=O)Nc2ccccc2)OC(C)(C)C1c1ccc(Cl)cc1 (stereo unspecified)
inactive: [14] 93 % of control | [15] 89 % of control | [16] 89 % of control
